Legend:
[1] = tested on: neuronal cells infected with LV-α-synuclein; experiment: Calcein assay of membrane integrity (FLIPR); assay type: cell-based; details: for Percent reversal of α-Syn mediated disruption of cell integrity (0.01 μM test compound): calcein assay
Experimental: (§1) Next, to ascertain the effects on neuronal activity, cells were infected with LV-α-synuclein for 24 h, treated with Example 2 at 0, 0.01, 0.1 and 1 μM for 24 h in serum free media, loaded with Fluo-4 or calcein, and analyzed by FLIPR assay to determine Ca^2+ and calcein levels. […] Finally, to examine the effects Example 2 on neuronal survival, an MTT cell viability assay was performed. […] All cell free and cell based assays were repeated at least 3 times and experiments were performed blinded to sample identity.

[2] = tested on: Neuronal cells expressing high levels of α-synuclein; experiment: Neurite outgrowth (Tubulin III antibody); assay type: cell-based; details: 0.1 and 1.0 μM (FIG. 3A)
[3] = target: T1, α-synuclein (wild type) expressed by lentivirus in a neuronal cell line (Homo sapiens, UniProt P37840); experiment: Cell-based α-synuclein aggregation by immunoblot; details: soluble and insoluble fractions; test compound 0, 0.1, 1 and 10 μM for 24 h
T1 construct: expressed in transfected cells

neuronal cells = experiment: MTT cell viability assay; assay type: cell-based
Experimental: as §1

[4] = tested on: neuronal cells infected with LV-α-synuclein; experiment: Ca2+ levels by FLIPR assay (Fluo-4); assay type: cell-based; details: 0, 0.01, 0.1 and 1 μM for 24 h in serum free media, Fluo-4 (FIG. 3B)
Experimental: as §1

[5] = target: T1, α-synuclein (wild type) expressed by lentivirus in a neuronal cell line; experiment: Cell-based α-synuclein accumulation by confocal microscopy; details: test compound 0, 0.1, 1 and 10 μM for 24 h (FIG. 2)
Recombinant α-synuclein = Recombinant α-synuclein (Homo sapiens, UniProt P37840); experiment: Cell-free α-synuclein aggregation assay (SDS-PAGE, immunoblot); assay type: biochemical; details: 10 μM α-synuclein, 37° C. 16 h then 56° C. 6 h, immunoblot (FIG. 1)
Experimental: Recombinant α-synuclein (10 μM) are incubated at 37° C. for 16 h and then at 56° C. for 6 h with test compound. […] After incubation, the mixture is run on a SDS-PAGE gel, followed by immunoblot testing with α-synuclein antibodies.

## CCc1cc(NC(=O)NCCN2CCN(C)CC2)ccc1Cc1c[nH]c2ccccc12 [Example 3, 1-(4-((1H-indol-3-yl)methyl)-3-ethylphenyl)-3-(2-(4-methylpiperazin-1-yl)ethyl)urea]
[1]
  Percent reversal of α-Syn mediated disruption of cell integrity (0.01 μM test compound): 18.9%

## CCc1cc(NC(=O)NCCN2CCNCC2)ccc1Cc1c[nH]c2ccccc12 [Example 5, 1-(4-((1H-Indol-3-yl)methyl)-3-ethylphenyl)-3-(2-(piperazin-1-yl)ethyl)urea]
[1]
  Percent reversal of α-Syn mediated disruption of cell integrity (0.01 μM test compound): 89.5%

## CCCCc1cc(OCc2c[nH]c3ccccc23)cc(OC(=O)NCCN2CCN(C)CC2)c1 [Example 1]
[1]
  Percent reversal of α-Syn mediated disruption of cell integrity (0.01 μM test compound): 26.8%

## CCc1cc(NC(=O)NCCc2cnc[nH]2)ccc1Cc1c[nH]c2ccccc12 [Example 6, 1-(2-(1H-imidazol-5-yl)ethyl)-3-(4-((1H-indol-3-yl)methyl)-3-ethylphenyl)urea]
[1]
  Percent reversal of α-Syn mediated disruption of cell integrity (0.01 μM test compound): 37.5%

## CCc1cc(NC(=O)NCCN)ccc1Cc1c[nH]c2ccccc12 [Example 4, 1-(4-((1H-indol-3-yl)methyl)-3-ethylphenyl)-3-(2-aminoethyl)urea]
[1]
  Percent reversal of α-Syn mediated disruption of cell integrity (0.01 μM test compound): 25.9%

## CCCCc1cc(NC(=O)NCCN2CCN(C)CC2)cc(O)c1Cc1c[nH]c2ccccc12 [Example 2, 1-(4-((1H-Indol-3-yl)methyl)-3-butyl-5-hydroxyphenyl)-3-(2-(4-methylpiperazin-1-yl)ethyl)urea]
[2]
  effect on neurite extension and cellular morphology: ameliorated the deleterious effects on neurite extension and improved cellular morphology
[3]
  reduction in the levels of aggregates in the various fractions (immunoblot): 50-60%
[1]; 0, 0.01, 0.1 and 1 μM for 24 h in serum free media (FIG. 3C)
  effect on calcein retention in the cytoplasm: reversed the effect of α-synuclein on levels of calcein
[1]
  Percent reversal of α-Syn mediated disruption of cell integrity (0.01 μM test compound): 34.1%
Neuronal cells; at 10 μM (FIG. 3D)
  toxicity in MTT cell viability assay: mild toxicity
Neuronal cells; doses ranging from 0.1-10 μM (FIG. 3D)
  toxic effects in MTT cell viability assay: no toxic effects
[4]
  effect on Ca2+ levels: restored concentrations of Ca^2+ to those in cells not infected with LV-α-synuclein
[5]
  reduction in the level of aggregates in the neuronal cell bodies and neurites (confocal microscopy): 60-65%
Recombinant α-synuclein
  inhibition of aggregation of α-synuclein into oligomers: capable of inhibiting the aggregation of α-synuclein into oligomers in a concentration-dependent manner

From patent US9527852B2 (Neuropore Therapies, Inc., priority 2012, dated 2016)
